Earlier results, collected in publication PMC11767451, “Novel Approaches to Monitor Pharmacokinetics and Metabolism of Gemcitabine-Ibandronate Conjugate in Mice and Dogs” (Molecules, 2025).

Set-up: method as in PMID 36571444, PMID 24131140, PMID 21561347
Details: cancer patients; cited from earlier work

Structure (SMILES): Nc1ccn([C@@H]2O[C@H](CO)[C@@H](O)C2(F)F)c(=O)n1 [GEM, gemcitabine]
- fatal treatment-related events, share of patients: <1% to 4
